# Measurements: patent EP4129284B1, “SERTACONAZOL FOR PROVIDING A SPORISTATIC AND/OR SPORICIDAL EFFECT” (Dr. Pfleger Arzneimittel GmbH, priority 2021, dated 2023)
# Assays:
# Assay type in all cases: cell-based, human
# [1] = test system: IL-1α
# Procedure: (§1) Additionally, the influence on the cell viability and the release of lactate dehydrogenase (LDH) was examined over the incubation time. Disruptions of the cell membranes can be measured by the release of the cytosolic enzyme LDH and be evaluated as a marker for cellular necrosis. As the biocompatibility of the material is determined by further cellular and molecular factors, the analysis of the cellular interleukin release allows the conclusion on e.g. pro-inflammatory effects of the substances, which would not be possible to be detected by sole cytotoxicity. Such interleukins are interleukins 1α, 6 or 8, which are involved in coordinating the cellular proliferation, cell migration and possible inflammatory processes. Such a method is described in, for example, Wiegand C, Hipler UC. Evaluation of biocompatibility and cytotoxicity using keratinocyte and fibroblast cultures. Skin Pharmacol Physiol 2009; 22:74-82; Wiegand C, Winter D, Hipler UC. Molecular-weight-dependent toxic effects of chitosans on the human keratinocyte cell line HaCaT. Skin Pharmacol Physiol. 2010;23(3):164-70.
# (§2) The spore suspensions and the solutions of sertaconazol, ciclopiroxolamin and terbinafin were prepared as in Example 1, wherein the respective test concentrations were obtained by diluting these solutions in ultrapure water (WFI; Fresenius Kabi) instead of SGB (Merck). Full skin models were produced as previously described [Reddersen K, Wiegand C, Elsner P, Hipler UC. Three-dimensional human skin model infected with Staphylococcus aureus as a tool for evaluation of bioactivity and biocompatibility of antiseptics. Int J Antimicrob Agents. 2019; 54(3):283-291; Wiegand C, Fink S, Beier O, Horn K, Pfuch A, Schimanski A, Grünler B, Hipler UC, Elsner P. Dose- and Time-Dependent Cellular Effects of Cold Atmospheric Pressure Plasma Evaluated in 3D Skin Models. Skin Pharmacol Physiol. 2016;29(5):257-265].Particularly, normal human dermal fibroblasts (NHDF; Lot 1060702.1, Promocell) and normal human epidermal keratinocytes (NHEK; Lot 9100102, Promocell) were used. Fibroblasts were cultivated in Dulbecco's modified eagle medium (DMEM; Lot MC09049P, Amimed), with 2% foetal calf serum (Lot P160509; PAN), 5 ng/mL hFGF (Lot 0329586; novoprotein) and 5 µg/ml Insulin (Lot H07443P, AMIMED) at 37°C and a 5% CO2 atmosphere. Keratinocytes were cultivated in keratinocyte medium (KBM, Lot 446M063, Promocell) at 37°C and a 5% CO2 atmosphere. The cultivation was performed over 7 days in 75 cm^2 cell culture flasks (Greiner Bio-One). The cells were subsequently detached with Trypsin-EDTA (Lot 2091326; Gibco) and dissolved in the respective medium. For producing the dermis equivalent, fibroblasts were cultivated in 12-well inserts (Greiner bio-one) with DMEM (Lot MC09049P, Amimed) + 10% foetal calf serum (Lot P160509, PAN) + 1% Gentamycin (Lot 2027100, Gibco) + 150 µg/ml ascorbic acid (Lot BCBS1081V, Sigma) for 3 weeks at […] and 5 % CO2. The medium was changed all 2-3 days. Before seeding the keratinocytes for producing the […], the medium surrounding the insert was completely removed and the dermis upper layer was coated with fibronectin (50 µg/mL; Lot 435P078, Promocell). After 30 min of incubation of the dermis equivalent with fibronectin, the seeding of the keratinocytes was performed with 2 × 10^5 cells / insert in KBM (Lot 446M063, Promocell) + 5% FKS (Lot P160509, PAN) + 1% Gentamycin (Lot 2027100, Gibco). Subsequently, the skin models were incubated for 45 min in the incubator before the models were flooded with KBM + 5% FKS + 1% Gentamycin. The skin models were cultivated for 7 days by submersion in the medium with decreasing foetal calf serum concentration (5 %, 2 %, 0 %). The medium was changed all 2-3 days. After the cultivation by submersion, the skin models were further cultivated for 12 days at the air-medium interface (airlift cultivation). […]
# [2] = test system: IL-8
# Procedure: as §1, §2
# [3] = test system: IL-6
# Procedure: as §1, §2
secretion of IL-1α [1],release of IL-8 [2],release of IL-6 [3],SMILES
no significant secretion,,,"Cc1cc(C2CCCCC2)n(O)c(=O)c1 [Ciclopiroxolamin, ciclopiroxolamin]"
,does not induce the release,does not induce the release,"Clc1ccc(C(Cn2ccnc2)OCc2csc3c(Cl)cccc23)c(Cl)c1 (stereo not shown) [Sertaconazol, sertaconazol]"
no significant secretion,,,"CN(C/C=C/C#CC(C)(C)C)Cc1cccc2ccccc12 [Terbinafin, terbinafin]"
